Measurements as given in ChEMBL document CHEMBL1149710, “Two new alkaloids and active anti-hepatitis B virus constituents from Hypserpa nitida” (Bioorg Med Chem Lett, 2007).

Columns and labels:
[1] = Selectivity index, ratio of CC50 for human Hep G2.2.15 cells to IC50 for HBV e antigen secretion in HBV transfected Hep G2.2.15 cells; type: functional
[2] = Cytotoxicity against human Hep G2.2.15 cells; type: functional; conditions: HepG2 2.2.15
[3] = tested on: Hepatitis B virus; experiment: Antiviral activity against HBV transfected Hep G2.2.15 cells assessed as inhibition of surface antigen HBsAg secretion; type: functional, organism-based; conditions: HepG2 2.2.15
[4] = tested on: Hepatitis B virus; experiment: Antiviral activity against HBV transfected Hep G2.2.15 cells assessed as inhibition of e antigen HBsAg secretion; type: functional, organism-based; conditions: HepG2 2.2.15
[5] = Selectivity index, ratio of CC50 for human Hep G2.2.15 cells to IC50 for surface antigen HBsAg secretion in HBV transfected Hep G2.2.15 cells; type: functional

SMILES | Ratio CC50/IC50 [1] | CC50 [2] [mM] | IC50 [3] [mM] | IC50 [4] [mM] | Ratio CC50/IC50 [5]
COC1=CC(=O)[C@]2([C@@H](Cl)C[C@]34NCC[C@]23CC(=O)C(OC)=C4OC)[C@H]1O [DAURICUMIDINE] | <1 | 1.86 | 0.45 | > 3.85 | 4.13
COc1c(O)cc2c(c1OC)C=[N+](C)CC2 [PHENOLBETAIN] | <1 | 2.18 | 2.37 | > 4.52 | <1
CCN(CC)C1=CC(=O)[C@]2([C@@H](Cl)C[C@@]34C(OC)=C(OC)C(=O)C[C@@]23CCN4C)[C@H]1O [HYPSERPANINE A] | <1 | 2.23 | 1.42 | > 2.87 | 1.57
COc1ccc2c3c1-c1c(ccc(O)c1O)C[C@@H]3[N+](C)(C)CC2 [HYPSERPANINE B] | – | > 3.61 | > 3.61 | > 3.61 | –
COC1=CC(=O)[C@@]2([C@@H]1O)[C@@H](Cl)C[C@@]13C(OC)=C(OC)C(=O)C[C@@]21CCN3C [ACUTUMINE] | – | > 2.99 | > 2.99 | > 2.98 | –
COc1ccc2c(c1O)-c1c(O)c(OC)cc3c1[C@H](C2)[N+](C)(C)CC3 [MAGNOFLORINE] | – | > 4.11 | > 4.11 | > 4.11 | –
COc1cc2c3c(c1O)C1(C=CC(=O)C=C1)CC3N(C)CC2 (centres undefined) [GLAZIOVINE] | <1 | 0.007 | 0.008 | 3.69 | <1
COc1ccc(C[C@H]2c3cc(O)c(OC)cc3CCN2C)cc1O [(S)-RETICULINE] | <1 | 1.91 | 2.14 | > 2.99 | <1
COC1=CC(=O)[C@@]2([C@@H]1O)[C@@H](Cl)C[C@]13NCC[C@]21CC(=O)C(OC)=C3OC [ACUTUMIDINE] | – | > 2.89 | 2.02 | > 2.89 | >1.31
COC1=CC(=O)[C@]2([C@@H](Cl)C[C@@]34C(OC)=C(OC)C(=O)C[C@@]23CCN4C)[C@H]1O [DAURICUMINE] | <1 | 2.19 | 1.31 | > 3.29 | 1.67
COc1cc2c(cc1O)C[C@H]1c3c(cc(OC)c(O)c3-2)CC[N+]1(C)C [LAURIFOLINE] | – | > 3.68 | > 3.68 | > 3.68 | –
Nc1ccn([C@@H]2CS[C@H](CO)O2)c(=O)n1 [LAMIVUDINE] | 1.16 | 30 | 11.7 | 25.9 | 2.56
COC1=CC(=O)[C@]2(CC[C@@]34C(OC)=C(OC)C(=O)C[C@]32CCN4C)[C@@H]1O [DECHLOROACUTUMINE] | – | 2.93 | > 2.93 | > 2.93 | –
COc1cc2c3c(c1OC)C1(C=CC(=O)C=C1)C[C@H]3N(C)CC2 [PRONUCIFERINE] | <1 | 0.05 | 0.042 | > 4.18 | 1.19
